Consider 18 molecules from patent US20250115600A1, “COVALENT MODIFIERS OF AKT1 AND USES THEREOF” (Terremoto Biosciences, Inc., priority 2022, published 2025).

Where only a bound is given, the exact number is not on record here.

Holding throughout (test): Live cell target engagement (NanoBRET) in HEK293 cells
What all share (format): cell-based
(In general: Bioluminescence resonance energy transfer reports proximity on the nanometre scale.)

For one experiment, the target named is AKT1 E17K (Homo sapiens (Human), UniProt P31749, E17K). Conditions: for IC50: HEK293, 2 hours at 37° C.
For a further experiment, the target named is AKT2 (Homo sapiens (Human), UniProt P31751). Conditions: HEK293, 2 hours at 37° C.
The next experiment deals with AKT1 WT (Homo sapiens (Human), UniProt P31749). Conditions: HEK293, 2 hours at 37° C.
Sequence of AKT1 WT (P31749 whole entry): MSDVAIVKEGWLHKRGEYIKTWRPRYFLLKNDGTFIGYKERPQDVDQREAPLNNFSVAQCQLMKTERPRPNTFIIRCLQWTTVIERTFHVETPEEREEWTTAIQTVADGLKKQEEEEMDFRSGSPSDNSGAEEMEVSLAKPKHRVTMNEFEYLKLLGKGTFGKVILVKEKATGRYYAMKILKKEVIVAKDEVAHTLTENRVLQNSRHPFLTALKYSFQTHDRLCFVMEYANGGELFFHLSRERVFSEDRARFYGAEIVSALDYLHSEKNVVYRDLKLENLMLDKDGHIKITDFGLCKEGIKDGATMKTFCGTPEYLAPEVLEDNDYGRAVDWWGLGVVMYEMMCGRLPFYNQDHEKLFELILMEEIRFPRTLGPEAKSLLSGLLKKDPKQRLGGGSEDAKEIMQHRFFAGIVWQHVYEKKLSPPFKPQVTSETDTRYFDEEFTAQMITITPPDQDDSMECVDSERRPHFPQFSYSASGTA

Sequence of AKT1 E17K (P31749 whole entry E17K): as the sequence (P31749 whole entry) above, with E17K counted along it
Sequence of AKT2 (P31751 whole entry): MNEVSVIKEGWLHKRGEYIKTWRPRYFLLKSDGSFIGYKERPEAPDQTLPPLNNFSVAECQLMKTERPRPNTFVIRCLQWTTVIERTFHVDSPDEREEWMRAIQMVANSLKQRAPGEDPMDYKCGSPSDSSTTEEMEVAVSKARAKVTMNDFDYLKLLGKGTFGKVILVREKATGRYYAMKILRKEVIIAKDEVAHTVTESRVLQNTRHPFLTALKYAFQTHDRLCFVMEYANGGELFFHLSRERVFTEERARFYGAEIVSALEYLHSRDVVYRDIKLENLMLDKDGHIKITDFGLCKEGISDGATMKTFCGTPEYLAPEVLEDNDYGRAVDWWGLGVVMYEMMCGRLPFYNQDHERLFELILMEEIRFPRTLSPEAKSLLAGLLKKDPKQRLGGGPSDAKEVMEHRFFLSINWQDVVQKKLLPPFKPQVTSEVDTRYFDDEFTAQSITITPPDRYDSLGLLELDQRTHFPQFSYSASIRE

As a reminder, the IC50 is the point on the concentration scale where inhibition reaches its midpoint. Consider `Nc1ncccc1-c1nc2ccc(-c3ccccc3)nc2n1-c1ccc(CNC(=O)c2cc(Br)c(O)c(C=O)c2)cc1` [Compound 50, N-({4-[2-(2-aminopyridin-3-yl)-5-phenylimidazo[4,5-b]pyridin-3-yl]phenyl}methyl)-3-bromo-5-formyl-4-hydroxybenzamide], for which the “AKT1 E17K IC50: Selectivity vs AKT1 WT” value on AKT1 E17K is reported as 2.1. The “AKT1 E17K IC50: Selectivity vs AKT2” value on AKT1 E17K is on record as 32. Further, the IC50 on AKT1 E17K is < 100 nM; at AKT2 it was 100 to 500 nM; at AKT1 WT, < 100 nM.
For `CC(C)(O)C#Cc1ccc2nc(-c3cccnc3N)n(-c3ccc(CNC(=O)Cc4ccc(C=O)c(O)c4)cc3)c2n1` [Compound 51, N-(4-(2-(2-aminopyridin-3-yl)-5-(3-hydroxy-3-methylbut-1-yn-1-yl)-3H-imidazo[4,5-b]pyridin-3-yl)benzyl)-2-(4-formyl-3-hydroxyphenyl)acetamide], on AKT1 E17K, the “AKT1 E17K IC50: Selectivity vs AKT1 WT” value turned out to be 3.8, the “AKT1 E17K IC50: Selectivity vs AKT2” value came to 90 and the half-maximal inhibitory concentration (IC50) is < 100 nM. Further, the IC50 against AKT2 was > 500 nM. In addition, on AKT1 WT, the concentration for half-maximal inhibition (IC50) lay in the range of 100 to 500 nM.
For `Nc1ncccc1-c1nc2ccc(-c3ccccc3F)nc2n1-c1ccc(CNC(=O)Cc2ccc(C=O)c(O)c2)cc1` [Compound 54, N-({4-[2-(2-aminopyridin-3-yl)-5-(2-fluorophenyl)imidazo[4,5-b]pyridin-3-yl]phenyl}methyl)-2-(4-formyl-3-hydroxyphenyl)acetamide], at AKT1 E17K, the “AKT1 E17K IC50: Selectivity vs AKT1 WT” value is 1.8, the “AKT1 E17K IC50: Selectivity vs AKT2” value turned out to be 64 and the half-maximal inhibitory concentration (IC50) was < 100 nM. Moreover, the IC50 on AKT2 lay in the range of 100 to 500 nM. At AKT1 WT, the concentration for half-maximal inhibition (IC50) was < 100 nM.
Turning to `Nc1ncccc1-c1nc2ccc(-c3cccc(N4CCOCC4)c3)nc2n1-c1ccc(CNC(=O)Cc2ccc(C=O)c(O)c2)cc1` [Compound 55, N-({4-[2-(2-aminopyridin-3-yl)-5-[3-(morpholin-4-yl)phenyl]imidazo[4,5-b]pyridin-3-yl]phenyl}methyl)-2-(4-formyl-3-hydroxyphenyl)acetamide], at AKT1 E17K, the “AKT1 E17K IC50: Selectivity vs AKT1 WT” value is reported as 0.93, the “AKT1 E17K IC50: Selectivity vs AKT2” value turned out to be 6.8 and the half-maximal inhibitory concentration (IC50) was < 100 nM. The 50% inhibitory concentration (IC50) on AKT2 was < 100 nM. In addition, the half-inhibitory concentration (IC50) against AKT1 WT was < 100 nM.
`CN(CCc1ccc(C=O)c(O)c1)C(=O)c1ccc(-n2c(-c3cccnc3N)nc3ccc(-c4ccccc4)nc32)cc1` [Compound 57, 4-[2-(2-aminopyridin-3-yl)-5-phenylimidazo[4,5-b]pyridin-3-yl]-N-[2-(4-formyl-3-hydroxyphenyl)ethyl]-N-methylbenzamide]: the “AKT1 E17K IC50: Selectivity vs AKT1 WT” value on AKT1 E17K is 2.7. Moreover, the “AKT1 E17K IC50: Selectivity vs AKT2” value at AKT1 E17K was 13. For the same molecule, the 50% inhibitory concentration (IC50) against AKT1 E17K was 100 to 500 nM; at AKT2, > 500 nM; against AKT1 WT, 100 to 500 nM.
For `Nc1ncccc1-c1nc2ccc(-c3ccccc3)nc2n1-c1ccc(CNC(=O)C2(c3ccc(C=O)c(O)c3F)CC2)cc1` [Compound 59, N-(4-(2-(2-aminopyridin-3-yl)-5-phenyl-3H-imidazo[4,5-b]pyridin-3-yl)benzyl)-1-(2-fluoro-4-formyl-3-hydroxyphenyl)cyclopropane-1-carboxamide], on AKT1 E17K, the “AKT1 E17K IC50: Selectivity vs AKT1 WT” value came out at 5.7. Moreover, the “AKT1 E17K IC50: Selectivity vs AKT2” value at AKT1 E17K was 39. The half-inhibitory concentration (IC50) against AKT1 E17K is 100 to 500 nM; at AKT2, > 500 nM; against AKT1 WT it was > 500 nM.
As to `CC(C)(C(=O)NCc1ccc(-n2c(-c3cccnc3N)nc3ccc(-c4ccccc4)nc32)cc1)c1ccc(C=O)c(O)c1` [Compound 60, N-({4-[2-(2-aminopyridin-3-yl)-5-phenylimidazo[4,5-b]pyridin-3-yl]phenyl}methyl)-2-(4-formyl-3-hydroxyphenyl)-2-methylpropanamide], the “AKT1 E17K IC50: Selectivity vs AKT1 WT” value on AKT1 E17K was 8.2. Moreover, the “AKT1 E17K IC50: Selectivity vs AKT2” value at AKT1 E17K was found to be 45. The IC50 on AKT1 E17K was < 100 nM; against AKT2, > 500 nM; at AKT1 WT, 100 to 500 nM.
Regarding `Nc1ncccc1-c1nc2ccc(-c3ccncc3)nc2n1-c1ccc(CNC(=O)Cc2ccc(C=O)c(O)c2)cc1` [Compound 61, N-({4-[2-(2-aminopyridin-3-yl)-5-(pyridin-4-yl)imidazo[4,5-b]pyridin-3-yl]phenyl}methyl)-2-(4-formyl-3-hydroxyphenyl)acetamide], at AKT1 E17K, the “AKT1 E17K IC50: Selectivity vs AKT1 WT” value was determined as 3, the “AKT1 E17K IC50: Selectivity vs AKT2” value was determined as 66 and the IC50 was < 100 nM. The 50% inhibitory concentration (IC50) against AKT2 was > 500 nM. Moreover, the 50% inhibitory concentration (IC50) against AKT1 WT is < 100 nM.
For the molecule `Nc1ncccc1-c1nc2ccc(-c3ccccn3)nc2n1-c1ccc(CNC(=O)Cc2ccc(C=O)c(O)c2)cc1` [Compound 62, N-({4-[2-(2-aminopyridin-3-yl)-5-(pyridin-2-yl)imidazo[4,5-b]pyridin-3-yl]phenyl}methyl)-2-(4-formyl-3-hydroxyphenyl)acetamide], the “AKT1 E17K IC50: Selectivity vs AKT1 WT” value on AKT1 E17K stood at 2.7. Further, the “AKT1 E17K IC50: Selectivity vs AKT2” value on AKT1 E17K was determined as 47. For the same molecule, the figures for the IC50 against AKT1 E17K, against AKT2 and against AKT1 WT were < 100 nM, > 500 nM and < 100 nM, respectively.
As to `Nc1ncccc1-c1nc2ccc(-c3ccccc3)nc2n1-c1ccc(CNC(=O)Cc2ccc(C=O)c(O)c2Cl)cc1` [Compound 63, N-({4-[2-(2-aminopyridin-3-yl)-5-phenylimidazo[4,5-b]pyridin-3-yl]phenyl}methyl)-2-(2-chloro-4-formyl-3-hydroxyphenyl)acetamide], on AKT1 E17K, the “AKT1 E17K IC50: Selectivity vs AKT1 WT” value amounted to 1.2, the “AKT1 E17K IC50: Selectivity vs AKT2” value came to 8.3 and the IC50 was < 100 nM. The molecule further came in with an IC50 on AKT2 of 100 to 500 nM. At AKT1 WT, the IC50 is < 100 nM.
With `CN(Cc1ccc(-n2c(-c3cccnc3N)nc3ccc(-c4ccccc4)nc32)cc1)C(=O)Cc1ccc(C=O)c(O)c1` [Compound 64, N-(4-(2-(2-aminopyridin-3-yl)-5-phenyl-3H-imidazo[4,5-b]pyridin-3-yl)benzyl)-2-(4-formyl-3-hydroxyphenyl)-N-methylacetamide], at AKT1 E17K, the “AKT1 E17K IC50: Selectivity vs AKT1 WT” value was 0.5, the “AKT1 E17K IC50: Selectivity vs AKT2” value amounted to 2 and the concentration for half-maximal inhibition (IC50) is < 100 nM. The molecule further registered a 50% inhibitory concentration (IC50) on AKT2 of 100 to 500 nM. The IC50 against AKT1 WT was < 100 nM.
As to `Nc1ncccc1-c1nc2ccc(-c3ccccc3)nc2n1-c1ccc(CNC(=O)C(F)c2ccc(C=O)c(O)c2)cc1` (stereo not drawn) [Compound 65, N-({4-[2-(2-aminopyridin-3-yl)-5-phenylimidazo[4,5-b]pyridin-3-yl]phenyl}methyl)-2-fluoro-2-(4-formyl-3-hydroxyphenyl)acetamide], the “AKT1 E17K IC50: Selectivity vs AKT1 WT” value on AKT1 E17K was 1.2. In addition, the “AKT1 E17K IC50: Selectivity vs AKT2” value at AKT1 E17K is 37. For the same molecule, the 50% inhibitory concentration (IC50) is < 100 nM on AKT1 E17K, 100 to 500 nM on AKT2 and < 100 nM against AKT1 WT.
Turning to `Nc1ncccc1-c1nc2ccc(C3CC3)nc2n1-c1ccc(CNC(=O)Cc2ccc(C=O)c(O)c2)cc1` [Compound 66, N-({4-[2-(2-aminopyridin-3-yl)-5-cyclopropylimidazo[4,5-b]pyridin-3-yl]phenyl}methyl)-2-(4-formyl-3-hydroxyphenyl)acetamide], on AKT1 E17K, the “AKT1 E17K IC50: Selectivity vs AKT1 WT” value is 3.5, the “AKT1 E17K IC50: Selectivity vs AKT2” value was 830 and the IC50 was < 100 nM. Further, the IC50 against AKT2 was > 500 nM. Besides, on AKT1 WT, the IC50 was < 100 nM.
For the molecule `Nc1ncccc1-c1nc2ccc(-c3cccnc3)nc2n1-c1ccc(CNC(=O)C2(c3ccc(C=O)c(O)c3F)CC2)cc1` [Compound 67, N-(4-(2-(2-aminopyridin-3-yl)-5-(pyridin-3-yl)-3H-imidazo[4,5-b]pyridin-3-yl)benzyl)-1-(2-fluoro-4-formyl-3-hydroxyphenyl)cyclopropane-1-carboxamide], at AKT1 E17K, the “AKT1 E17K IC50: Selectivity vs AKT1 WT” value is 27, the “AKT1 E17K IC50: Selectivity vs AKT2” value is >240 and the IC50 was < 100 nM. Moreover, the IC50 against AKT2 was > 500 nM. The half-inhibitory concentration (IC50) against AKT1 WT is > 500 nM.
For the molecule `Nc1ncccc1-c1nc2ccc(-c3cccnc3)nc2n1-c1ccc(CNC(=O)Cc2ccc(C=O)c(O)c2)cc1` [Compound 68, N-(4-(2-(2-aminopyridin-3-yl)-5-(pyridin-3-yl)-3H-imidazo[4,5-b]pyridin-3-yl)benzyl)-2-(4-formyl-3-hydroxyphenyl)acetamide], at AKT1 E17K, the “AKT1 E17K IC50: Selectivity vs AKT1 WT” value amounted to 4, the “AKT1 E17K IC50: Selectivity vs AKT2” value was 150 and the IC50 was < 100 nM. Moreover, on AKT2, the IC50 is > 500 nM. The half-inhibitory concentration (IC50) at AKT1 WT was < 100 nM.
Consider `Nc1ncccc1-c1nc2ccc(-c3ccccc3)nc2n1-c1ccc(CNC(=O)C2(c3ccc(C=O)c(O)c3)CC2)cc1` [Compound 69, N-({4-[2-(2-aminopyridin-3-yl)-5-phenylimidazo[4,5-b]pyridin-3-yl]phenyl}methyl)-1-(4-formyl-3-hydroxyphenyl)cyclopropane-1-carboxamide], for which, on AKT1 E17K, the “AKT1 E17K IC50: Selectivity vs AKT1 WT” value is 16, the “AKT1 E17K IC50: Selectivity vs AKT2” value is recorded as >160 and the IC50 is < 100 nM. Also, the 50% inhibitory concentration (IC50) on AKT2 is > 500 nM. The 50% inhibitory concentration (IC50) at AKT1 WT is > 500 nM.
In the case of `Nc1ncccc1-c1nc2ccc(-c3cccnc3)nc2n1-c1ccc(CNC(=O)C2(c3ccc(C=O)c(O)c3)CC2)cc1` [Compound 70, N-({4-[2-(2-aminopyridin-3-yl)-5-(pyridin-3-yl)imidazo[4,5-b]pyridin-3-yl]phenyl}methyl)-1-(4-formyl-3-hydroxyphenyl)cyclopropane-1-carboxamide], at AKT1 E17K, the “AKT1 E17K IC50: Selectivity vs AKT1 WT” value is on record as 7.7, the “AKT1 E17K IC50: Selectivity vs AKT2” value was 65 and the IC50 was < 100 nM. For the same molecule, at AKT2, the half-maximal inhibitory concentration (IC50) is > 500 nM. Moreover, the IC50 against AKT1 WT was in the range of 100 to 500 nM.
As for `Nc1ncccc1-c1nc2ccc(-c3cccnc3)nc2n1-c1ccc(CNC(=O)c2ccc(O)c(C=O)c2)cc1` [Compound 71, N-(4-(2-(2-aminopyridin-3-yl)-5-(pyridin-3-yl)-3H-imidazo[4,5-b]pyridin-3-yl)benzyl)-3-formyl-4-hydroxybenzamide], at AKT1 E17K, the “AKT1 E17K IC50: Selectivity vs AKT1 WT” value is 5.8, the “AKT1 E17K IC50: Selectivity vs AKT2” value was found to be 37 and the concentration for half-maximal inhibition (IC50) was < 100 nM. The molecule further came in with a half-maximal inhibitory concentration (IC50) against AKT2 of 100 to 500 nM. Moreover, the IC50 against AKT1 WT is < 100 nM.
